Measured values published in PubChem BioAssay (NCI).
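A five-concentration, 48-hour dose response in 96-well plates underlies each endpoint, interpolated linearly between surrounding concentrations. GI50 marks 50% less growth. TGI is the concentration that stops growth completely.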

The compounds below were run on SN12C renal (assay: inhibition of tumour cell growth, NCI panel, 48 h).

Going from `COc1ccc(CCN(C)C2CCC(C#N)(c3ccc(OC)c(OC)c3)CC2)cc1OC` (stereo not drawn) to `CCC[CH2][Sn]([CH2]CCC)([O]C(=O)c1ccc(OC)c(OC)c1OC)[O][Sn]([CH2]CCC)([CH2]CCC)[O]C(=O)c1ccc(OC)c(OC)c1OC`, the TGI falls from greater than 100 µM to 1.58 µM.

`NS(=O)(=O)c1ccc(N=Nc2c(O)c(C(=O)O)cc3ccccc23)cc1` and `Cc1cc2c(=O)c3ccccc3[nH]c2c(C(N)=O)c1C` cannot be ordered by TGI: greater than 100 µM for the first, greater than 100 µM for the second.

`Cc1c(N(C)C)ccc2c(=O)c3cccc(CC(=O)O)c3oc12` and `CC1(C)COC(c2cccc3c2C(=O)c2cccc(Cl)c2-3)=N1` cannot be ordered by TGI: greater than 100 µM for the first, greater than 100 µM for the second.

Compared with `CCOC(=O)c1nc2c(OC)nn(O)cc-2c1[N+](=O)[O-]`, `CCOC(=O)c1ccc(/C(C)=N/NC(N)=S)cc1` is higher in TGI: 34.7 µM for the first, greater than 100 µM for the second.

Compared with `C/C(CC(=O)Nc1ccc(C)c(C)c1)=N\N(c1ccccc1)c1ccccc1`, `O=C(/C(=C/c1ccc(Cl)cc1)c1ccccc1)c1ccccc1` is lower in TGI: greater than 100 µM for the first, 31.7 µM for the second.

First: COC(=O)/C(=N\NC(N)=S)C(C(=O)OC)C(=O)C(=O)Nc1ccc(C)cc1 (stereo not drawn)
Second: CN(C)CCC(/C=C/c1ccccc1)=N\Nc1ccccc1
The TGI of the first is higher: greater than 100 µM for the first, 11.6 µM for the second.

First: O=C(OC1CCC(=C2SCCCS2)[C@H]1C1SCCCS1)c1ccccc1 (stereo partly drawn)
Second: CN1CCC(=O)/C(=C/c2ccccc2)C1
The TGI of the first is higher: greater than 100 µM for the first, 28.4 µM for the second.

First: O=C1CCC2(c3ccc(Cl)cc3)Nc3cc(Cl)ccc3N12 (stereo not drawn)
Second: O=C(Nc1ccc(Br)cc1F)c1cc(Cl)ccc1O
The TGI of the first is 5-fold higher: 28.6 µM for the first, 5.68 µM for the second.

First: CC(NCCC(c1ccccc1)c1ccccc1)c1ccccc1 (stereo not drawn)
Second: c1ccc2c(OCCSCCCCCCCCCCSCCOc3cccc4ccccc34)cccc2c1
The TGI of the first is lower: 9.13 µM for the first, greater than 100 µM for the second.

`C/C(N=NC(=S)N1CC2CCC(CC2)C1)=C1\C=CC=CN1O` and `NC(N)=N/N=C/c1c(Cl)cccc1Cl` cannot be ordered by TGI: greater than 100 µM for the first, greater than 100 µM for the second.

Work on `O=C(Nc1cccc(C(F)(F)F)c1)c1ccc(NC2=C(Cl)C(=O)N(Cc3ccc(Cl)cc3Cl)C2=O)cc1` yielded a TGI of 32.8 µM.

First: CC(NCCC(c1ccccc1)c1ccccc1)c1ccccc1 (stereo not drawn)
Second: O=C(Nc1cccc(C(F)(F)F)c1)c1ccc(NC2=C(Cl)C(=O)N(Cc3ccc(Cl)cc3Cl)C2=O)cc1
The GI50 of the first is 7.2-fold lower: 2.42 µM for the first, 17.4 µM for the second.

Going from `O=C(Nc1ccc(Br)cc1F)c1cc(Cl)ccc1O` to `NC(N)=N/N=C/c1c(Cl)cccc1Cl`, the GI50 rises from 0.491 µM to 36.6 µM (75-fold).

With `CCC[CH2][Sn]([CH2]CCC)([O]C(=O)c1ccc(OC)c(OC)c1OC)[O][Sn]([CH2]CCC)([CH2]CCC)[O]C(=O)c1ccc(OC)c(OC)c1OC` the GI50 was 0.443 µM.

These compounds were tested on SR leukemia (assay: inhibition of tumour cell growth, NCI panel, 48 h).

`COC(=O)C(=Cc1cc(OC)c(OC)c(OC)c1-c1cc2c(cc1C1(C)OCCS1)OCO2)C(=O)OC` (stereo not drawn) and `CCOC(=O)N[C@H]1CCc2cc(OC)c(OC)c(OC)c2-c2ccc(SC)c(=O)cc21` cannot be ordered by TGI: greater than 100 µM for the first, greater than 100 µM for the second.

`C#CC1/C(=C\C(=O)OC)CCCC1O` (stereo not drawn) and `COc1ccc(OCC(=O)O)c2c1CCCC2=O` cannot be ordered by TGI: greater than 100 µM for the first, greater than 100 µM for the second.

Compared with `CC12CCC(=O)C[C@H]1CCC(OC=O)C2Br` (stereo partly drawn), `CC(C)C1=Cc2ccc3c(c2C(=O)C1=O)CCCC3(C)C` is lower in TGI: greater than 100 µM for the first, 6.48 µM for the second.

Going from `Cc1ccc2nc(/C(=C/c3ccc(/C=C(\NC(=O)c4ccccc4)c4nc5ccc(C)cc5[nH]4)c(C)c3)NC(=O)c3ccccc3)[nH]c2c1` to `O=C(/C(=C/c1ccc(Cl)cc1)c1ccccc1)c1ccccc1`, the TGI falls from greater than 100 µM to 45.3 µM.

Compared with `COC1C(OC(=S)Nc2ccccc2)c2ccccc2N1C(C)=O` (stereo not drawn), `C/C(CC(=O)Nc1ccc(C)c(C)c1)=N\N(c1ccccc1)c1ccccc1` is lower in TGI: greater than 100 µM for the first, 51.2 µM for the second.

`COCC(OC)C(CC=C(C#N)C#N)OC` (stereo not drawn) and `COc1ccc(CCN(C)C2CCC(C#N)(c3ccc(OC)c(OC)c3)CC2)cc1OC` (stereo not drawn) cannot be ordered by TGI: greater than 100 µM for the first, greater than 100 µM for the second.

Going from `On1c(-c2ccccc2)c(-c2ccccc2N2CCCC2)c2ccccc21` to `CC(NCCC(c1ccccc1)c1ccccc1)c1ccccc1` (stereo not drawn), the TGI falls from greater than 100 µM to 5.26 µM.

`CSc1nc(SC)c2c(C#N)[nH]nc2n1` and `Cc1c(N(C)C)ccc2c(=O)c3cccc(CC(=O)O)c3oc12` cannot be ordered by TGI: greater than 100 µM for the first, greater than 100 µM for the second.

Going from `COc1c(O)c2c(=O)cc3c4c5c(cc(=O)c6c(O)c(OC)c(CC(C)O)c(c(c1CC(C)O)c24)c65)OCO3` (stereo not drawn) to `CCC[CH2][Sn]([CH2]CCC)([O]C(=O)c1ccc(OC)c(OC)c1OC)[O][Sn]([CH2]CCC)([CH2]CCC)[O]C(=O)c1ccc(OC)c(OC)c1OC`, the TGI rises from 9.41 µM to greater than 100 µM.

`NS(=O)(=O)c1ccc(N=Nc2c(O)c(C(=O)O)cc3ccccc23)cc1` and `O=C(Nc1ccc(Br)cc1F)c1cc(Cl)ccc1O` cannot be ordered by TGI: greater than 96.1 µM for the first, greater than 30.1 µM for the second.

Compared with `COC(=O)/C(=N\NC(N)=S)C(C(=O)OC)C(=O)C(=O)Nc1ccc(C)cc1` (stereo not drawn), `O=C(Nc1cccc(C(F)(F)F)c1)c1ccc(NC2=C(Cl)C(=O)N(Cc3ccc(Cl)cc3Cl)C2=O)cc1` is lower in TGI: greater than 100 µM for the first, 3.93 µM for the second.

Compared with `O=C1CCC2(c3ccc(Cl)cc3)Nc3cc(Cl)ccc3N12` (stereo not drawn), `CN1CCC(=O)/C(=C/c2ccccc2)C1` is lower in TGI: greater than 100 µM for the first, 61.3 µM for the second.

`NC(N)=N/N=C/c1c(Cl)cccc1Cl` was tested, and the TGI was 56.3 µM.

`CC(NCCC(c1ccccc1)c1ccccc1)c1ccccc1` (stereo not drawn) and `O=C(Nc1cccc(C(F)(F)F)c1)c1ccc(NC2=C(Cl)C(=O)N(Cc3ccc(Cl)cc3Cl)C2=O)cc1` are within 1.5-fold of each other in GI50: 1.92 µM for the first, 1.83 µM for the second.

Compared with `O=C(Nc1ccc(Br)cc1F)c1cc(Cl)ccc1O`, `NC(N)=N/N=C/c1c(Cl)cccc1Cl` is 41-fold higher in GI50: 0.541 µM for the first, 22.2 µM for the second.

With `CCC[CH2][Sn]([CH2]CCC)([O]C(=O)c1ccc(OC)c(OC)c1OC)[O][Sn]([CH2]CCC)([CH2]CCC)[O]C(=O)c1ccc(OC)c(OC)c1OC` the GI50 was 0.315 µM.

These compounds were tested on XF 498 CNS (assay: inhibition of tumour cell growth, NCI panel, 48 h).

`C#CC1/C(=C\C(=O)OC)CCCC1O` (stereo not drawn) and `COc1ccc(OCC(=O)O)c2c1CCCC2=O` cannot be ordered by TGI: greater than 100 µM for the first, greater than 100 µM for the second.

First: CC12CCC(=O)C[C@H]1CCC(OC=O)C2Br (stereo partly drawn)
Second: CN1CCC(=O)/C(=C/c2ccccc2)C1
The TGI of the first is higher: greater than 100 µM for the first, 32.9 µM for the second.

Going from `Cc1nc(Nc2ccc(Cl)cc2)sc1C(=O)NNC(=S)NN` to `COC(=O)/C(=N\NC(N)=S)C(C(=O)OC)C(=O)C(=O)Nc1ccc(C)cc1` (stereo not drawn), the TGI rises from 38.4 µM to greater than 100 µM.

Going from `CCOC(=O)N[C@H]1CCc2cc(OC)c(OC)c(OC)c2-c2ccc(SC)c(=O)cc21` to `COc1ccc(CCN(C)C2CCC(C#N)(c3ccc(OC)c(OC)c3)CC2)cc1OC` (stereo not drawn), the TGI rises from 29.8 µM to greater than 100 µM.

First: COc1ccc2c(c1OCC(=O)O)C(=O)C(CCC(=O)O)CC2 (stereo not drawn)
Second: CCOC(=O)c1nc2c(OC)nn(O)cc-2c1[N+](=O)[O-]
The TGI of the first is higher: greater than 100 µM for the first, 29.6 µM for the second.

`Cc1ccc2nc(/C(=C/c3ccc(/C=C(\NC(=O)c4ccccc4)c4nc5ccc(C)cc5[nH]4)c(C)c3)NC(=O)c3ccccc3)[nH]c2c1` and `O=C(/C(=C/c1ccc(Cl)cc1)c1ccccc1)c1ccccc1` are within 1.5-fold of each other in TGI: 36.5 µM for the first, 34.5 µM for the second.

`COC1C(OC(=S)Nc2ccccc2)c2ccccc2N1C(C)=O` (stereo not drawn) and `C/C(CC(=O)Nc1ccc(C)c(C)c1)=N\N(c1ccccc1)c1ccccc1` cannot be ordered by TGI: greater than 100 µM for the first, greater than 100 µM for the second.

Compared with `CC1=Cc2cccc(C)c2C(=O)C1=O`, `Cc1cc2c(=O)c3ccccc3[nH]c2c(C(N)=O)c1C` is higher in TGI: 9.65 µM for the first, greater than 100 µM for the second.

Going from `Cc1ccc(C)c(NC(=O)c2cccc([N+](=O)[O-])c2O)c1` to `CC1(C)COC(c2cccc3c2C(=O)c2cccc(Cl)c2-3)=N1`, the TGI rises from 67.3 µM to greater than 100 µM.

`COCC(OC)C(CC=C(C#N)C#N)OC` (stereo not drawn) and `N#CC(C(=O)/C(=N\NC(N)=O)C(C#N)c1ccc(Cl)cc1)c1ccc(Cl)cc1` (stereo not drawn) cannot be ordered by TGI: greater than 100 µM for the first, greater than 100 µM for the second.

Compared with `On1c(-c2ccccc2)c(-c2ccccc2N2CCCC2)c2ccccc21`, `O=C1CCC2(c3ccc(Cl)cc3)Nc3cc(Cl)ccc3N12` (stereo not drawn) is lower in TGI: greater than 100 µM for the first, 15 µM for the second.

`CSc1nc(SC)c2c(C#N)[nH]nc2n1` and `CCOC(=O)c1ccc(/C(C)=N/NC(N)=S)cc1` cannot be ordered by TGI: greater than 100 µM for the first, greater than 100 µM for the second.

Going from `C/C(N=NC(=S)N1CC2CCC(CC2)C1)=C1\C=CC=CN1O` to `CCC[CH2][Sn]([CH2]CCC)([O]C(=O)c1ccc(OC)c(OC)c1OC)[O][Sn]([CH2]CCC)([CH2]CCC)[O]C(=O)c1ccc(OC)c(OC)c1OC`, the TGI falls from 91.2 µM to 0.229 µM (400-fold).

For `CCC[CH2][Sn]([CH2]CCC)([O]C(=O)c1ccc(OC)c(OC)c1OC)[O][Sn]([CH2]CCC)([CH2]CCC)[O]C(=O)c1ccc(OC)c(OC)c1OC`, the GI50 was 0.104 µM.
